The first data set in a line: Log P by HPLC on reversed phase columns (EEC directive 79/831 Annex V.A8). The data set is classed as physicochemical. As to conditions: method [a]. In outline: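 Values come from retention times calibrated against alkan-2-ones (3–16 carbons) by linear interpolation, using reversed-phase LC-UV per EEC directive 79/831 Annex V.A8. Acetonitrile gradient 10–95% with 0.1% formic acid [a], 0.001 M ammonium acetate [b] or 0.1% phosphoric acid [c]; several values within one method separated by "+".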
Take `O=C(NC1(C(=O)OC2CCC2)CC1)c1sc(Br)c(Cl)c1F` [1.0592]: the LogP is 3.72^[a].

`CCCOC(=O)C1(NC(=O)c2sc(Cl)c(Br)c2Br)CC1` [1.0593]: the LogP was 3.98^[a].

On to `O=C(NC1(C(=O)OC2CCC2)CC1)c1sc(Cl)c(Br)c1Br` [1.0594], for which the LogP was 4.20^[a].

For `COC(=O)C1(NC(=O)c2sc(Cl)c(Br)c2Cl)CC1` [1.0595], the LogP was 3.11^[a].

For `CCCOC(=O)C1(NC(=O)c2sc(Cl)c(Br)c2Cl)CC1` [1.0596], the LogP is 3.98^[a].

For `O=C(NC1(C(=O)OC2CCC2)CC1)c1sc(Cl)c(Br)c1Cl` [1.0597], the LogP was 4.15^[a].

With `CCCOC(=O)C1(NC(=O)c2cc(Cl)c(Br)s2)CC1` [1.0598], the LogP is 3.28^[a].

In the case of `O=C(NC1(C(=O)OC2CCC2)CC1)c1cc(Cl)c(Br)s1` [1.0599], the LogP was 3.43^[a].

On to `COC(=O)C1(NC(=O)c2sc(Cl)c(Br)c2C#N)CC1` [1.0600], for which the LogP is 2.36^[a].

Regarding `CCCOC(=O)C1(NC(=O)c2cc(Br)c(Cl)s2)CC1` [1.0601], the LogP is 3.43^[a].

Regarding `COC(=O)C1(NC(=O)c2sc(C#N)c(Br)c2Cl)CC1` [1.0602], the LogP was 2.44^[a].

In the case of `COC(=O)C1(NC(=O)c2sc(Cl)c(Br)c2F)CC1` [1.0603], the LogP is 2.70^[a].

In the case of `CCOC(=O)CNC(=O)c1sc(C#N)c(Br)c1Cl` [1.0604], the LogP was 2.63^[a].

`COC(=O)CNC(=O)c1sc(C#N)c(Br)c1Cl` [1.0605]: the LogP is 2.24^[a].

`CCOC(=O)C1(NC(=O)c2sc(C#N)c(Br)c2Cl)CC1` [1.0606]: the LogP is 2.79^[a].

On to `O=C(NC1(C(=O)OC2CCC2)CC1)c1cc(Br)c(Cl)s1` [1.0607], for which the LogP is 3.46^[a].

In the case of `COC(=O)C(C)(C)NC(=O)c1sc(Cl)c(Br)c1C#N` [1.0608], the LogP is 2.77^[a].

Consider `CCOC(=O)C(NC(=O)c1sc(Cl)c(Br)c1C#N)C(C)C` (centres unmarked) [1.0609], for which the LogP was 3.81^[a].

Turning to `COC(=O)C(NC(=O)c1sc(Cl)c(Br)c1C#N)C1CC1` (centres unmarked) [1.0610], the LogP is 2.93^[a].

Take `CC(C)OC(=O)C1(NC(=O)c2sc(Cl)c(Cl)c2Br)CCC1` [1.0611]: the LogP was 4.69^[a].

In the case of `COC(=O)C1(NC(=O)c2sc(Cl)c(Cl)c2Br)CC(C)(C)C1` [1.0612], the LogP was 4.50^[a].

Take `COC(=O)C1(NC(=O)c2sc(Cl)c(Cl)c2Br)CCC1` [1.0613]: the LogP is 3.67^[a].

Regarding `CC(C)(C)OC(=O)C1(NC(=O)c2sc(Cl)c(Cl)c2Br)CC(F)(F)C1` [1.0614], the LogP was 4.83^[a].

Regarding `O=C(NC(C(=O)OCc1ccccc1)C1CC1)c1sc(Br)c(Br)c1Cl` (centres unmarked) [1.0615], the LogP was 5.07^[a].

`CC(C)OC(=O)C1(NC(=O)c2sc(Br)c(Br)c2Cl)CCC1` [1.0616]: the LogP was 4.71^[a].

As to `O=C(NC(C(=O)OCc1ccccc1)C1CC1)c1sc(Cl)c(Cl)c1Br` (centres unmarked) [1.0617], the LogP is 5.10^[a].

On to `COC(=O)C1(NC(=O)c2sc(Br)c(Br)c2Cl)CC(C)(C)C1` [1.0618], for which the LogP is 4.52^[a].

In the case of `O=C(NC(C(=O)OCc1ccccc1)C1CC1)c1sc(Br)c(Br)c1F` (centres unmarked) [1.0619], the LogP was 4.63^[a].

Consider `CC(C)OC(=O)C1(NC(=O)c2sc(Br)c(Br)c2F)CCC1` [1.0620], for which the LogP was 4.23^[a].

For `COC(=O)C1(NC(=O)c2sc(Br)c(Br)c2F)CC(C)(C)C1` [1.0621], the LogP is 4.12^[a].

In the case of `COC(=O)C1(NC(=O)c2sc(Br)c(Br)c2F)CC(F)(F)C1` [1.0622], the LogP was 3.37^[a].

As for `CC(C)(C)OC(=O)C1(NC(=O)c2sc(Br)c(Br)c2F)CC(F)(F)C1` [1.0623], the LogP is 4.46^[a].

Consider `COC(=O)C1(NC(=O)c2sc(Br)c(Br)c2Cl)CC(F)(F)C1` [1.0624], for which the LogP was 3.69^[a].

Take `CCCOC(=O)C1(NC(=O)c2sc(Cl)c(Br)c2C)CC1` [1.0625]: the LogP was 3.62^[a].

For the compound `NC(=O)CNC(=O)c1sc(Cl)c(Cl)c1Br` [1.0626], the LogP is 1.98^[a].

As for `COC(=O)C(C)(C)NC(=O)c1sc(Br)c(C(F)F)c1Br` [1.0627], the LogP was 3.22^[a].

For the compound `CCOC(=O)C(Cc1ccccc1)NC(=O)c1sc(Cl)c(Br)c1C#N` (centres unmarked) [1.0628], the LogP is 4.00^[a].

As for `COC(=O)C1(NC(=O)c2sc(Cl)c(Br)c2C#N)CCC1` [1.0629], the LogP is 2.82^[a].

Take `CCOC(=O)C1(NC(=O)c2sc(Cl)c(Br)c2C#N)CCC1` [1.0630]: the LogP is 3.20^[a].

With `CCCOC(=O)C1(NC(=O)c2sc(Cl)c(Br)c2C#N)CC1` [1.0631], the LogP is 3.06^[a].

Regarding `N#Cc1c(C(=O)NC2(C(=O)OC3CCC3)CC2)sc(Cl)c1Br` [1.0632], the LogP is 3.21^[a].

`N#CCNC(=O)c1sc(Cl)c(Br)c1C#N` [1.0633]: the LogP was 2.07^[a].

For the compound `CCOC(=O)CNC(=O)c1sc(Cl)c(Br)c1F` [1.0634], the LogP is 2.88^[a].

For the compound `COC(=O)CNC(=O)c1sc(Cl)c(Br)c1F` [1.0635], the LogP is 2.49^[a].

Take `CCOC(=O)C1(NC(=O)c2sc(Cl)c(Br)c2F)CC1` [1.0636]: the LogP was 3.10^[a].

`COC(=O)C(C)(C)NC(=O)c1sc(Cl)c(Br)c1F` [1.0637]: the LogP was 3.27^[a].

Regarding `NC(=O)CNC(=O)c1sc(Br)c(Br)c1Cl` [1.0638], the LogP was 1.98^[a].

For `CCOC(=O)C(NC(=O)c1sc(Cl)c(Br)c1F)C(C)C` (centres unmarked) [1.0639], the LogP is 4.40^[a].

`CCOC(=O)C(Cc1ccccc1)NC(=O)c1sc(Cl)c(Br)c1F` (centres unmarked) [1.0640]: the LogP was 4.50^[a].

For the compound `COC(=O)C1(NC(=O)c2sc(Cl)c(Br)c2F)CCC1` [1.0641], the LogP is 3.29^[a].

As for `CCOC(=O)C1(NC(=O)c2sc(Cl)c(Br)c2F)CCC1` [1.0642], the LogP is 3.75^[a].

On to `CCCOC(=O)C1(NC(=O)c2sc(Cl)c(Br)c2F)CC1` [1.0643], for which the LogP is 3.52^[a].

As to `O=C(NC1(C(=O)OC2CCC2)CC1)c1sc(Cl)c(Br)c1F` [1.0644], the LogP was 3.69^[a].

Consider `N#CCNC(=O)c1sc(Cl)c(Br)c1F` [1.0645], for which the LogP is 2.36^[a].

Consider `CCOC(=O)CNC(=O)c1sc(Br)c(C(F)F)c1Br` [1.0646], for which the LogP was 2.92^[a].

In the case of `COC(=O)CNC(=O)c1sc(Br)c(C(F)F)c1Br` [1.0647], the LogP was 2.56^[a].

`CCOC(=O)C1(NC(=O)c2sc(Br)c(C(F)F)c2Br)CC1` [1.0648]: the LogP was 3.05^[a].

Take `COC(=O)C1(NC(=O)c2sc(Br)c(C(F)F)c2Br)CC1` [1.0649]: the LogP is 2.70^[a].

With `COC(=O)C(NC(=O)c1sc(Cl)c(Br)c1F)C1CC1` (centres unmarked) [1.0650], the LogP was 3.41^[a].

With `Cc1c(C(=O)NC2(C(=O)OC3CCC3)CC2)sc(Br)c1Cl` [1.0651], the LogP was 3.78^[a].

Consider `N#CCNC(=O)c1sc(Br)c(C#N)c1Cl` [1.0652], for which the LogP is 2.03^[a].

As to `CCOC(=O)CNC(=O)c1sc(Cl)c(C#N)c1Br` [1.0653], the LogP is 2.58^[a].

Regarding `COC(=O)CNC(=O)c1sc(Cl)c(C#N)c1Br` [1.0654], the LogP was 2.21^[a].

Take `CCOC(=O)C1(NC(=O)c2sc(Cl)c(C#N)c2Br)CC1` [1.0655]: the LogP is 2.69^[a].

`COC(=O)C1(NC(=O)c2sc(Cl)c(C#N)c2Br)CC1` [1.0656]: the LogP is 2.34^[a].

Regarding `COC(=O)C(C)(C)NC(=O)c1sc(Cl)c(C#N)c1Br` [1.0657], the LogP is 2.83^[a].

The same data set, now with this note: method marked [a].
With `CCOC(=O)C(NC(=O)c1sc(Cl)c(C#N)c1Br)C(C)C` (centres unmarked) [1.0658], the LogP was 3.83^[a].

For `COC(=O)C(NC(=O)c1sc(Cl)c(C#N)c1Br)C1CC1` (centres unmarked) [1.0659], the LogP was 3.00^[a].

As to `CCOC(=O)C(Cc1ccccc1)NC(=O)c1sc(Cl)c(C#N)c1Br` (centres unmarked) [1.0660], the LogP was 4.09^[a].

Turning to `COC(=O)C1(NC(=O)c2sc(Cl)c(C#N)c2Br)CCC1` [1.0661], the LogP is 2.87^[a].

With `CCOC(=O)C1(NC(=O)c2sc(Cl)c(C#N)c2Br)CCC1` [1.0662], the LogP was 3.28^[a].

Consider `N#CCNC(=O)c1sc(Cl)c(C#N)c1Br` [1.0663], for which the LogP was 2.03^[a].

As for `CCOC(=O)CNC(=O)c1sc(C#N)c(Cl)c1Br` [1.0664], the LogP was 2.64^[a].

In the case of `COC(=O)CNC(=O)c1sc(C#N)c(Cl)c1Br` [1.0665], the LogP was 2.25^[a].

On to `CCOC(=O)C1(NC(=O)c2sc(C#N)c(Cl)c2Br)CC1` [1.0666], for which the LogP was 2.76^[a].

As to `COC(=O)C1(NC(=O)c2sc(C#N)c(Cl)c2Br)CC1` [1.0667], the LogP was 2.42^[a].

With `COC(=O)C(C)(C)NC(=O)c1sc(C#N)c(Cl)c1Br` [1.0668], the LogP was 2.90^[a].

With `CCOC(=O)C(NC(=O)c1sc(C#N)c(Cl)c1Br)C(C)C` (centres unmarked) [1.0669], the LogP is 3.90^[a].

In the case of `COC(=O)C(NC(=O)c1sc(C#N)c(Cl)c1Br)C1CC1` (centres unmarked) [1.0670], the LogP is 3.07^[a].

For the compound `CCOC(=O)C(Cc1ccccc1)NC(=O)c1sc(C#N)c(Cl)c1Br` (centres unmarked) [1.0671], the LogP is 4.14^[a].

`COC(=O)C1(NC(=O)c2sc(C#N)c(Cl)c2Br)CCC1` [1.0672]: the LogP was 2.96^[a].

On to `CCOC(=O)C1(NC(=O)c2sc(Br)c(C#N)c2Cl)CCC1` [1.0673], for which the LogP is 3.30^[a].

In the case of `COC(=O)C1(NC(=O)c2sc(Br)c(C#N)c2Cl)CCC1` [1.0674], the LogP was 2.89^[a].

`CCOC(=O)C(Cc1ccccc1)NC(=O)c1sc(Br)c(C#N)c1Cl` (centres unmarked) [1.0675]: the LogP is 4.06^[a].

For `COC(=O)C(NC(=O)c1sc(Br)c(C#N)c1Cl)C1CC1` (centres unmarked) [1.0676], the LogP was 2.99^[a].

As for `O=C(CNC(=O)c1sc(Br)c(Br)c1Cl)OC1CCOC1` (centres unmarked) [1.0677], the LogP was 2.84^[a].

Source of the values: patent US12642270B2, “Substituted thiophene carboxamides, thiophene carboxylic acids and derivatives thereof” (Bayer Aktiengesellschaft, priority 2019, dated 2026).
